In patent US20070248570A1, “Pharmaceutical Compositions Containing Platinum Complexes with Secondary Xanthates and Therapeutic Uses Thereof” (priority 2003, published 2007):

Experiments:
KB = assay: Cytotoxicity on human cancer cells in tissue culture, crystal violet staining; type: cell-based
Experimental: (§1) The anti-tumoral activity of compounds was determined in tissue culture media of pH of 6.8 and 7.4. Cells were incubated for 2 h with the test compounds, followed by 24-96 h incubation with regular, inhibitor free medium of pH 7.4. The substances were serially diluted in tissue culture medium of the desired pH. After incubation, surviving cells were stained with crystal violet and the optical density was measured in an ELISA reader.

SK-MEL-25 = assay: as above; type: cell-based
Experimental: as §1

SK-OV3 = assay: as above; type: cell-based
Experimental: as §1

Calu-6 = assay: as above; type: cell-based
Experimental: as §1

MCF-7 = assay: as above; type: cell-based
Experimental: as §1

LXF-289 = assay: as above; type: cell-based
Experimental: as §1

[1] = system: six human tumor cell lines; assay: Cytotoxic activity in a panel of six human tumor lines (comparisons and pH quotient); type: cell-based; details: mean ± SD over the human tumor cell lines tested
Experimental: FIG. 2: Mean quotient of IC50 at pH 7.4/IC50 at pH 6.8 Mean values ±SD of IC50 at pH 7.4/IC50 at pH 6.8 for all six human tumor cell lines tested. IC50at both pH conditions were obtained for four cell lines.
Calu-6 (adenocarcinoma, lung), SK-MEL-25 (melanoma), MCF-7 (mamma carcinoma), LXF-289 (adenocarcinoma, lung), SK-OV -3 (adenocarcinoma, ovary), KB (squameous cell carcinoma, head and neck) were obtained from ATCC and were cultivated according to the instructions of the supplier at 37° C., 5% CO2 atmosphere and 100% relative humidity.
as §1, with “reader. The concentration which was needed to reduce the cell number by 50% (IC50) was determined from dose-response curves for each compound.” for “reader.”

tumor cells = details: cited from earlier work
[2] = system: human tumors xenotransplanted in nude mice; details: cited from earlier work
[3] = KB, pH 6.8, 2 h incubation, mean of four assays
[4] = KB, pH 7.4, 2 h incubation, mean of four assays
[5] = SK-MEL-25, pH 6.8, 2 h incubation, mean of four assays
[6] = SK-MEL-25, pH 7.4, 2 h incubation, mean of four assays
[7] = SK-0V-3, pH 6.8, 2 h incubation, mean of four assays
[8] = SK-0V-3, pH 7.4, 2 h incubation, mean of four assays
[9] = Calu-6, pH 6.8, 2 h incubation, mean of four assays
[10] = Calu-6, pH 7.4, 2 h incubation, mean of four assays
[11] = MCF-7, pH 6.8, 2 h incubation, mean of four assays
[12] = MCF-7, pH 7.4, 2 h incubation, mean of four assays
[13] = LXF-289, pH 6.8, 2 h incubation, mean of four assays
[14] = LXF-289, pH 7.4, 2 h incubation, mean of four assays

Compound	IC50 (KB; [3]) [µM]	IC50 (KB; [4]) [µM]	IC50 (SK-MEL-25; [5]) [µM]	IC50 (SK-MEL-25; [6]) [µM]	IC50 (SK-OV3; [7]) [µM]	IC50 (SK-OV3; [8]) [µM]	IC50 (Calu-6; [9]) [µM]	IC50 (Calu-6; [10]) [µM]	IC50 (MCF-7; [11]) [µM]	IC50 (MCF-7; [12]) [µM]	IC50 (LXF-289; [13]) [µM]	IC50 (LXF-289; [14]) [µM]	further results
COC(=S)[S][Pt][S]C(=S)OC [r1, Bis(O-methyl-dithiocarbonato)platinum (II)]	–	–	–	–	–	–	–	–	–	–	–	–	IC50 (KB; pH 6.8): 20 ± 1 µM; IC50 (KB; pH 7.4): 49 ± 2 µM; IC50 (SK-MEL-25; pH 6.8): 14 ± 5 µM; IC50 (SK-MEL-25; pH 7.4): 80 ± 25.9 µM; IC50 (SK-OV3; pH 6.8): 26 ± 2.4 µM; IC50 (SK-OV3; pH 7.4): 47 ± 2.9 µM; IC50 (Calu-6; pH 6.8): 11 ± 2.9 µM; IC50 (Calu-6; pH 7.4): 21 ± 5.6 µM; IC50 (MCF-7; pH 6.8): 7 ± 1 µM; IC50 (MCF-7; pH 7.4): 19 ± 4.4 µM; IC50 (LXF-289; pH 6.8): 39 ± 9.5 µM; IC50 (LXF-289; pH 7.4): 102 ± 19.3 µM
Bis(O-propyl-dithiocarbonato)platinum(II) [r3]	12 ± 1	38 ± 3	10 ± 1.5	21 ± 1.9	45 ± 27	50 ± 1	7 ± 1.1	21 ± 0.9	4 ± 1	9 ± 3	37 ± 9	49 ± 5	–
CC(C)OC(=S)[S][Pt][S]C(=S)OC(C)C [Compound 15, Bis(O-isopropyl-dithiocarbonato)platinum(II)]	6 ± 0.4	10 ± 0.9	6 ± 0.4	12 ± 1.5	14 ± 2.1	33 ± 8	6 ± 0.6	10 ± 0.6	3 ± 0.9	7 ± 3	10 ± 1.7	30 ± 0.4	Mean quotient of IC50 at pH 7.4/IC50 at pH 6.8 [1]: 2.18±0.49
Bis(O-cyclobutyl-dithiocarbonato)platinum(II) [Compound 18]	6 ± 0.6	20 ± 2.9	7 ± 1	12 ± 3.7	17 ± 2.9	19 ± 4.1	3 ± 0.4	7 ± 1.2	11 ± 0.8	21 ± 1	37 ± 1.4	44 ± 0.8	–
CCOC(=S)[S][Pt][S]C(=S)OCC [r2, Bis(O-ethyl-dithiocarbonato)platinum(II)]	18 ± 4	58 ± 5	21 ± 3	56 ± 6.2	86 ± 3.2	98 ± 16.5	21 ± 3.9	24 ± 0.9	12 ± 0.2	47 ± 5.3	45 ± 8	91 ± 24.9	cytotoxicity in media of pH 6.8 as compared to pH 7.4 (tumor cells): significantly higher cytotoxicity; toxicity on kidneys, small intestines and white blood cell count ([2]; mouse, in vivo): significantly lower toxicity; anti-tumoral activity on human tumors xenotransplanted in nude mice ([2]; versus cisplatin): comparable to cisplatin
N.N.[Cl][Pt][Cl] [Cisplatin, cis-dichloro-diammine-platinum(II)]	55 ± 2	52 ± 3.3	78 ± 3.3	90 ± 25	64 ± 0.7	90 ± 2.77	16 ± 1	25 ± 5.7	108 ± 27	160 ± 30	113 ± 22.3	83 ± 23	–
